Several values for one entry are separate records, joined by “and”; a condition that tells them apart may be missing. Equal values may be shown once.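 48-hour exposure; five concentrations; linearly interpolated endpoints. Abbreviation: GI50, concentration required for 50% inhibition of growth. TGI denotes the concentration required for complete inhibition of growth.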
Experiments:
Assay in all cases: NCI tumour cell line growth inhibition, 48 h
[1] = test system: DMS 273 small cell lung
[2] = test system: M19-MEL melanoma
[3] = test system: RXF-631 renal
[4] = test system: XF 498 CNS
[5] = test system: DLD-1 colon
[6] = test system: DMS 114 small cell lung
[7] = test system: SNB-78 CNS
[8] = test system: MDA-N
[9] = test system: HOP-18 NSCLC

Compound | TGI [1] [µM] | TGI [2] | TGI [3] | TGI [4] [µM] | TGI [5] | TGI [6] [µM] | TGI [7] | TGI [8] | TGI [9] [µM] | further results
CCn1c2ccccc2c(=O)c2c(OC)ccc(OC)c21 | > 100 | > 100 µM | > 100 µM | > 100 | – | – | – | – | – | –
O=[N+]([O-])c1ccc(C(Cl)C(Cl)c2ccc(C(Cl)C(Cl)c3ccc([N+](=O)[O-])cc3[N+](=O)[O-])cc2)c([N+](=O)[O-])c1 (stereo unspecified) | 6.71 | 3.15 µM and 0.749 µM | 8.92 µM and 1.26 µM | 0.389 | 6.02 µM and 0.748 µM | 3.59 | > 62 µM and 52.8 µM | – | – | GI50 [5]: 0.251 µM; GI50 [2]: 0.256 µM; GI50 [3]: 0.336 µM; GI50 [7]: 0.762 µM
CCCCNS(=O)(=O)c1n[nH]c(=O)[nH]c1=O | – | – | – | – | – | – | – | > 100 µM | – | –
Cc1ccc(/C=C(\NC(=O)c2ccccc2)c2nc3ccccc3[nH]2)cc1 | – | > 100 µM | – | – | > 100 µM | > 100 | – | – | > 100 | –
Cn1c(=O)nc2n(-c3ccc(Cl)cc3)c3cc(Cl)ccc3nc-2c1=O | 12.5 | 3.53 µM | 4.22 µM | 2.73 | 3.9 µM | 3.8 | > 57.4 µM | 3.09 µM | 28.3 | –
CCC1C(C(=O)Nc2ccccc2C)=C(C)NC(C)=C1c1ccccc1C (stereo unspecified) | > 83.2 | > 100 µM | – | > 100 | > 59.7 µM | – | > 100 µM | – | > 100 | –
C[C@@H](NS(=O)(=O)c1ccc(NC(=O)c2ccccc2)cc1)C(=O)O | > 100 | > 100 µM | – | > 100 | > 100 µM | – | – | – | > 100 | –
Cn1c2c(c3ccccc31)CCN(CCCCN1CCN(c3ccccc3)CC1)C2=O | > 100 | > 86.7 µM | > 100 µM | > 70.1 | > 100 µM | > 79.1 | > 100 µM | 89.9 µM | > 31.6 | –
COC(=O)c1ncc2c(=O)[nH]c3ccccc3c2c1C(=O)OC | > 100 | > 100 µM | > 100 µM | > 100 | > 100 µM | > 100 | > 100 µM | – | > 100 | –
COCCOC1=CC(=O)c2c(O)ccc(O)c2C1=O | – | – | – | – | – | – | – | 0.341 µM and 1.13 µM | – | GI50 [8]: 0.359 µM
CCN(CC)CC(C)C(=O)/C=C/c1ccc(C)cc1 (stereo unspecified) | 5.96 | 3.04 µM | – | 2.98 | 3.16 µM | 3.2 | 23.1 µM | – | 22.3 | –
NS(=O)(=O)c1ccc(NC(=O)Cc2nc3ccccc3s2)cc1 | 33.1 | 28.1 µM | 30.3 µM | 29.8 | 29.5 µM | 29.2 | 41.6 µM | – | 34.8 | –
CC(C)(C)c1cc(CCCCCCCC2(CCCCCCCc3cc(C(C)(C)C)cc(C(C)(C)C)c3)OC(COCCOCCCCCC#N)C(COCCOCCCCCC#N)O2)cc(C(C)(C)C)c1 (stereo unspecified) | > 100 | > 100 µM | – | – | > 100 µM | > 100 | > 100 µM | – | > 100 | –
O=C(O)c1ccc(C(O)(c2ccccc2)c2ccccc2)cc1 | – | – | – | – | – | – | – | > 100 µM | – | –
COc1cccc(-c2cc(=O)c3cc(N4CCOCC4)ccc3[nH]2)c1 | – | – | – | – | – | – | – | 0.0278 µM | – | –
NC1CCCCC1N.O=C1C=C/C(=C(/c2ccc(O)c(Br)c2)c2ccccc2S(=O)(=O)[O-])C=C1Br.O=C1C=C/C(=C(/c2ccc(O)c(Br)c2)c2ccccc2S(=O)(=O)[O-])C=C1Br.[Pt+4] | 29.2 | 32.2 µM | – | 0.927 | > 100 µM | – | > 100 µM | – | > 100 | GI50 [5]: 5.27 µM; GI50 [1]: 0.813 µM; GI50 [9]: 7.95 µM; GI50 [2]: 0.539 µM; GI50 [7]: 48.2 µM; GI50 [4]: 0.112 µM
Cc1ccc(S(=O)(=O)N2CCN(C=S)CC2)cc1 | > 100 | > 100 µM | > 100 µM | – | > 100 µM | > 100 | > 100 µM | – | > 100 | –
